Source: publication PMC7179205, “An Improved Synthesis of Key Intermediate to the Formation of Selected Indolin-2-Ones Derivatives Incorporating Ultrasound and Deep Eutectic Solvent (DES) Blend of Techniques, for Some Biological Activities and Molecular Docking Studies” (Molecules, 2020)
Where “and” joins values, the source holds several entries; their conditions need not be identical. Equal entries are not always repeated. Entries after “also recorded” stand apart in the source; their conditions may differ. Where two headings read alike, the source gives them in different places.

Assays:
Rat Paw Edema = test: carrageenan-induced hind paw edema method (anti-inflammatory activity); type: in vivo, Wistar albino rats; details: for inhibition in vivo at 10 mg/kg: Rattus norvegicus, po; for inhibition in vivo at 10 mg/kg / anti-inflammatory activity (in words) / % Age Inhibition of Rat Paw Edema, 4 H: oral dose 10 mg/kg; for inhibition in vivo at 10 mg/kg / % Age Inhibition of Rat Paw Edema, 4 H: mean ± SEM; for Potency (anti-inflammatory): relative to indomethacin = 1.00; for anti-inflammatory activity (in words): compared with standard indomethacin
Procedure: The anti-inflammatory activity of the synthesized compounds (4a–n) was evaluated by the carrageenan-induced paw edema method. An oral dose of 10 mg/kg was used for compounds and compared with the standard. Anti-inflammatory activity was accessed through percentage inhibition after 2 and 4 h (Table 1).
Compounds produced were assessed for their anti-inflammatory activity using the carrageenan-induced hind paw edema method. The anti-inflammatory activity was carried out using Wistar albino rats of either sex (150–220 g) using a Digital Plethysmometer (Model No. 7140, UGO BASILE). The edema was induced by using 1% carrageenan solution. Indomethacin was used as a standard drug. The anti-inflammatory activity of the standard drug and tested compounds was determined at a dose of 10 mg/kg body weight. The animals were divided into groups containing six animals each and the initial paw volume of each rat was noted by the NaCl displacement method. One group was kept as control, one as standard, and the rest of the groups of compounds were to be tested. To the control group, 1% CMC solution was administered p.o. To the standard group, the standard drug was administered orally. To the test group, tested compounds were administered orally. After 60 min of the 1% CMC solution/standard drug/test compound administration, 0.1 ml of 1% (w/v) carrageenan was injected in the plantar region of the hind limb (right) of all the rats in each group including the control group. The paw volume was again measured after the time interval of 2 and 4 h. Using the following formula, inflammation was calculated as percentage inhibition for the test and reference compounds
(Final foot volume of control—final foot volume of std./test) × 100 / final foot volume of control)

[1] = system: acetic acid-induced writhing; test: acetic acid-induced writhing method (analgesic activity); type: in vivo, Swiss albino mice; details: for inhibition in vivo at 10 mg/kg: Mus musculus, read-out: % Analgesic Activity; for Potency (analgesic): relative to indomethacin = 1.00; for Mean with ± SEM: writhes counted for 15 min; for analgesic activity (in words): compared with standard indomethacin
Procedure: All the tested compounds and standard drugs are evaluated at 10 mg/kg oral dose.
The analgesic activity of the tested compounds was carried out by acetic acid-induced writhing method as given in the literature using Swiss albino mice of either sex (25–35 g). The writh were induced in the albino mice using an intraperitoneal injection of 1% acetic acid solution. The standard drug indomethacin and test compounds were evaluated at a concentration of 10 mg/kg of the body weight. The animals were divided into groups and each group consisted of six animals. One group was kept as control, one as standard, and other as test groups. To the control group, 0.1% CMC solution was administered p.o; to the standard group, the standard drug was administered orally, and to the test group, test compounds were administered orally. After 60 min of the 0.1% CMC solution/standard drug/tested compound administration, 0.1 ml of 1% (v/v) acetic acid solution in distilled water was injected intraperitoneally in all the mice in each group including the control group. The writhing (a contraction of the abdomen, turning of trunk, and extension of hind limbs) was counted after 5 min of acetic acid administration and were counted for a period of 15 min. The percentage of analgesic activity was calculated using the following formula.
(Mean wriths of control—mean wriths of std./test) / mean wriths of control) × 100

gastric mucosal damage = test: acute ulcerogenic activity (severity index of gastric mucosal damage); type: in vivo, Wistar rats; details: for Severity Index: test compounds 30 mg/kg oral, indomethacin 10 mg/kg or 20 mg/kg, 17 h after dose, mean ± SEM
Procedure: Four compounds, namely, 4c (Ar = 4-chlorophenyl), 4f (Ar = 2-chlorophenyl), 4i (Ar = 4-fluoro-3-chlorophenyl), and 4n (Ar = 2-methylphenyl) were selected for their ulcerogenic activity. This selection was based on their anti-inflammatory and analgesic activity. Compounds were evaluated at an oral dose of 30 mg/kg relative to 10 mg/kg indomethacin.
Acute ulcerogenic activity evaluation of the synthesized compounds was carried out according to the method described using Wistar rats of either sex (180–220 g). The animals were distributed into control, group, and test group. Each group consisted of six rats. All the rats fasted for 24 h with free access to water. To the control group, 1% CMC solution was administered p.o; to the standard group, indomethacin at a concentration of 20 mg/kg was administered orally; and to the test groups, tested compounds were administered orally at a concentration of 30 mg/kg. After the dose administration animals were kept for 17 h. After this, the animals were sacrificed for the appraisal of ulcerogenic assessment. The stomach was taken out from the animal body and washed with flushing water, then with a cotton swab wetted with saline (0.9%) and pinned on wax-coated try. The glandular portion of the stomach was cleaned again with saline to closely identify the presence of a type of ulcers or hemorrhage mark using a magnifying glass. The mucosal injury of the stomach was evaluated as per the following system: 0.5 = redness; 1 = spot ulcer; 1.5 = hemorrhage streak; 2 = ulcers < 3; 3 = ulcers > 3 < 5. The value obtained as a result of the mean score of the individual treated group—mean score of control is referred to as the severity index of the gastric mucosal damage.

gastric tissue = test: lipid peroxidation (MDA content of gastric tissue); type: in vivo; details: for MDA content (lipid peroxidation): as repeated in Table 4, the values are: MDA content (lipid peroxidation); for Nanomoles of MDA Content ± SEM/ 100 mg Tissue: gastric tissue
Procedure: Gastrointestinal (GI) ulceration, bleeding, and renal problems are common complications of NSAID’S consumption, which is directly related to lipid peroxidation. […] It was measured as the nmol of MDA/100 mg of gastric tissue. We have found the Lipid peroxidation value was maximum 6.71 ± 0.18 for indomethacin, whereas 3.89 ± 0.17, 4.08 ± 0.22, 4.26 ± 0.12, and 4.81 ± 0.13 for compounds 4i, 4c, 4f, and 4n, respectively.
The method adopted for lipid peroxidation is the same as Ohkawaet al. and the recent work of our researchers.

[2] = 2 h, 2 h, read-out: % Age Inhibition of Rat Paw Edema, 2 H
[3] = 4 h, 4 h, read-out: % Age Inhibition of Rat Paw Edema, 4 H

Compound	inhibition in vivo at 10 mg/kg (Rat Paw Edema; [2]) [%]	inhibition in vivo at 10 mg/kg (Rat Paw Edema; [3]) [%]	Potency (anti-inflammatory) (Rat Paw Edema; 10 mg/kg)	inhibition in vivo at 10 mg/kg ([1]; oral dose 10 mg/kg, mean ± SEM) [%]	Potency (analgesic) ([1]; 10 mg/kg)	Mean with ± SEM ([1]; oral dose 10 mg/kg)	Severity Index (gastric mucosal damage)	MDA content (lipid peroxidation) (gastric tissue) [nmol MDA/100 mg tissue]	Nanomoles of MDA Content ± SEM/ 100 mg Tissue (gastric tissue)	melting point [°C]	anti-inflammatory activity (in words) (Rat Paw Edema)	analgesic activity (in words) ([1]; oral dose 10 mg/kg, 10 mg/kg)	% Age Inhibition of Rat Paw Edema, 4 H (Rat Paw Edema; 4 h, 10 mg/kg) [%]	anti-inflammatory activity (in words) (Rat Paw Edema; 10 mg/kg)	analgesic activity (in words) ([1]; oral dose 10 mg/kg)	severity index as share of the severity shown by the standard (gastric mucosal damage; relative to indomethacin) [%]	% Analgesic Activity ([1]; oral dose 10 mg/kg, mean ± SEM, 10 mg/kg) [%]	Nanomoles of MDA Content ± SEM/ 100 mg Tissue (gastric tissue; listed as indomethacin)
O=C1C(=NNc2nc(-c3cc4ccccc4oc3=O)cs2)c2ccccc2N1CNc1ccc(Cl)cc1 [Compound 4c, 1-[(4-Chloro-phenylamino)-methyl]-3-{[4-(2-oxo-2H-chromen-3-yl)-thiazol-2-yl]-hydrazono}-1,3-dihydro-indol-2-one]	59.29 ± 0.143	30.17 ± 0.294	0.36	59.9 ± 0.846	0.81	13.00 ± 0.2582	0.666 ± 0.105	4.08 ± 0.22	4.08 ± 0.22 nmol of MDA/100 mg of gastric tissue and 4.26 ± 0.12 nmol of MDA/100 mg of gastric tissue	233 to 235								
O=C1C(=NNc2nc(-c3cc4ccccc4oc3=O)cs2)c2ccccc2N1CNc1ccc(F)c(Cl)c1 [Compound 4i, 1-[(3-Chloro-4-fluoro-phenylamino)-methyl]-3-{[4-(2-oxo-2H-chromen-3-yl)-thiazol-2-yl]-hydrazono}-1,3-dihydro-indol-2-one]	31.27 ± 0.188	63.95 ± 0.218	0.77	66.3 ± 1.01	0.90	10.93 ± 0.3128	0.500 ± 0.129	3.89 ± 0.17	3.89 ± 0.17 nmol of MDA/100 mg of gastric tissue	246 to 248	moderate anti-inflammatory activity	very good analgesic activity; also recorded: good analgesic activity						
O=C1C(=NNc2nc(-c3cc4ccccc4oc3=O)cs2)c2ccccc2N1CNc1ccccc1Cl [Compound 4f, 1-[(2-chloro-phenylamino)-methyl]-3-{[4-(2-oxo-2H-chromen-3-yl)-thiazol-2-yl]-hydrazono}-1,3-dihydro-indol-2-one]	48.38 ± 0.219	72.4	0.88	69.36 ± 0.585	0.94	9.93 ± 0.386	0.666 ± 0.105	4.26 ± 0.12	4.26 ± 0.12 nmol of MDA/100 mg of gastric tissue and 4.08 ± 0.22 nmol of MDA/100 mg of gastric tissue	239 to 241			72.42 ± 0.183	good anti-inflammatory activity; also recorded: significant anti-inflammatory activity	very good analgesic activity			
Cc1ccccc1NCN1C(=O)C(=NNc2nc(-c3cc4ccccc4oc3=O)cs2)c2ccccc21 [Compound 4n, 3-{[4-(2-Oxo-2H-chromen-3-yl)-thiazol-2-yl]-hydrazono}-1-(o-tolylamino-methyl)-1,3-dihydro-indol-2-one]	42.57 ± 0.213	69.58 ± 0.133	0.84	69.14 ± 0.689	0.93	10.00 ± 0.3651		4.81 ± 0.13	4.81 ± 0.13 nmol of MDA/100 mg of gastric tissue	237 to 239					very good analgesic activity	20		
COc1ccc2c(c1)c(CC(=O)O)c(C)n2C(=O)c1ccc(Cl)cc1 [Indomethacin, reference compound]	66.34 ± 0.051	82	1.00	73.6	1.00	8.55 ± 0.394	4.500 ± 0.316		6.71 ± 0.18 nmol of MDA/100 mg of gastric tissue				82.05 ± 0.08				73.61 ± 0.315	6.71 ± 0.18 nmol of MDA/100 mg of gastric tissue
